Data as given in ChEMBL document CHEMBL5724796, “Tm Shift (DSF) assay results for EUbOPEN Chemogenomics Library” (2024).
Values joined by “and” are separate entries in the source; they are usually repeats but may differ in a detail not shown here. Identical values can stand only once. Residues, ends and D or L forms follow the SMILES beside them. *: point of attachment. Boc = CC(C)(C)OC(=O)*

Assays:
[1] = biological target: T1, Peregrin (Homo sapiens) (UniProt P55201); details: Compound concentration 20.0 uM
T1 sequence (whole entry): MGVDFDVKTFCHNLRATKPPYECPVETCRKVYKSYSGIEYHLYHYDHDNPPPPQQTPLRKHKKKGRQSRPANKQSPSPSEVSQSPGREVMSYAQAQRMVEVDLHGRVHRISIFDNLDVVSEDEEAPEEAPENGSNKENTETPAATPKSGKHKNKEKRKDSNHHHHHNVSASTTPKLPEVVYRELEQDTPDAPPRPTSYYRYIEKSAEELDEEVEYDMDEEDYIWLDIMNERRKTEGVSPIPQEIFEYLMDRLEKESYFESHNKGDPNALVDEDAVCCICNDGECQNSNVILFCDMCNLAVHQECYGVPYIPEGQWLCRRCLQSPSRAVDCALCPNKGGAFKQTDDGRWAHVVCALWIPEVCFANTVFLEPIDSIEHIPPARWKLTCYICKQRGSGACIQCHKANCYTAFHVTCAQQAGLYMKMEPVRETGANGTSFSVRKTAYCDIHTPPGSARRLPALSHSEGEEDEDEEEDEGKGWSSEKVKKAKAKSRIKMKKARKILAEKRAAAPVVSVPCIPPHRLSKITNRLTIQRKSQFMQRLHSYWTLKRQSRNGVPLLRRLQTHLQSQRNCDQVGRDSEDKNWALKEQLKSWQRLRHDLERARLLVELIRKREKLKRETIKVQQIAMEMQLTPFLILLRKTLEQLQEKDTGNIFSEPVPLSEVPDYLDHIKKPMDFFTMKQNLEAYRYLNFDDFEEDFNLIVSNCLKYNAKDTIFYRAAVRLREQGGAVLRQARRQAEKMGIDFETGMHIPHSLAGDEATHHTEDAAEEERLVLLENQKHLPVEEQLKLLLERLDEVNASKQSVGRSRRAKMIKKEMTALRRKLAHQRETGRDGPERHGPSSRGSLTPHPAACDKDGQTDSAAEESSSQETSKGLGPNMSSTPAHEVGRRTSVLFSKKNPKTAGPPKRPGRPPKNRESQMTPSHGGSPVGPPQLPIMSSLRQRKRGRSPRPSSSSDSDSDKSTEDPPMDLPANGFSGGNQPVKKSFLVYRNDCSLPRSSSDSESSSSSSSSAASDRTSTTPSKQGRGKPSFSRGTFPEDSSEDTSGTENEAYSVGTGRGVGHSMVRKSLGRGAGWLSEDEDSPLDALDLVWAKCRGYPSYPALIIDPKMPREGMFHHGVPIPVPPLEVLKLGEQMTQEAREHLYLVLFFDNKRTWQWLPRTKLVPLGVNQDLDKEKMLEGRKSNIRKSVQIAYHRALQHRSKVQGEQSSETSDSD

[2] = biological target: Fibroblast growth factor receptor 2 (Homo sapiens) (UniProt P21802); details: Compound concentration 20.0 uM
Sequence of Fibroblast growth factor receptor 2 (Homo sapiens) (P21802 22-821 limits assumed): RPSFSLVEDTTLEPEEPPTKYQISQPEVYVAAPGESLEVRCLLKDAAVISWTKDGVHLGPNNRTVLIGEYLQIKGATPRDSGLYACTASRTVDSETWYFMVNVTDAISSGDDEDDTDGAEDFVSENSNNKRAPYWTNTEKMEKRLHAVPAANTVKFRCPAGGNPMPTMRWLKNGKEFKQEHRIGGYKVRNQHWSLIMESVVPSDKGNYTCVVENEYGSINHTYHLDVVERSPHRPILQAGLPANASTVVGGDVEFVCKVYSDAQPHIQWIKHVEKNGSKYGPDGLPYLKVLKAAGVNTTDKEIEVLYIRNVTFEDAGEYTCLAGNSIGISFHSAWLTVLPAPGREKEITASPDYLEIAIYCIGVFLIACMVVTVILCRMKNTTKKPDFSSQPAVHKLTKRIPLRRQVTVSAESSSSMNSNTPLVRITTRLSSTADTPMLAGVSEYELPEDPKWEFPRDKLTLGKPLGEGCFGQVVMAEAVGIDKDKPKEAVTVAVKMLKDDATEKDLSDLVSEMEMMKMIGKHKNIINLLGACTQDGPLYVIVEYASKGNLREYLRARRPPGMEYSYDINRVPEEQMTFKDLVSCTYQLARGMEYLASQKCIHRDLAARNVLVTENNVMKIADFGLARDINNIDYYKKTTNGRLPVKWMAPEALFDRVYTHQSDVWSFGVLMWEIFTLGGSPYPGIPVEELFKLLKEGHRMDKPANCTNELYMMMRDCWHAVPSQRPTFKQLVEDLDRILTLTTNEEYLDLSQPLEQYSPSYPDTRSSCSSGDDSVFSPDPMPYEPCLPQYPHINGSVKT

| SMILES | ΔTm [1] | ΔTm [2] |
| --- | --- | --- |
| COc1ccc(-c2c(-c3ccc(C#N)c(F)c3)nc(N3CCC(N)CC3)n(C)c2=O)cc1F | 1.09 °C | 0.16 °C |
| O=C(C=Cc1ccc(O)cc1)c1ccc(O)cc1O | 0.82 °C | 1.26 °C |
| CNCC[C@@H](Oc1ccccc1C)c1ccccc1 | -1.53 °C | 0.34 °C |
| NC(=O)c1cc(F)cc2c1C(=O)N(C1CCN(C3CCC(F)(F)CC3)CC1)C2 | -0.15 °C | -0.03 °C |
| CCOC(=O)NCCCC(=O)NCCc1ccccc1 | -0.92 °C | 0.51 °C |
| CCCCCCCCCCCCC/C=C/[C@@H](O)[C@H](CO)NC(=O)CCl | 0.52 °C | 0.03 °C |
| CN(C)CC(c1ccc(O)cc1)C1(O)CCCCC1 (stereo not given) | -1.07 °C | -0.09 °C |
| N#Cc1ccc(-c2csc(NN=C3CCCC3)n2)cc1 | -0.85 °C | 0.36 °C |
| O=C(O)c1cccc(-c2ccc(-c3cn(C(=O)N4CCCCC4Cc4ccccc4)nn3)cc2)c1 (stereo not given) | -2.81 °C | -0.39 °C |
| CC(=O)N[C@H](C(=O)N[C@@H](CC(=O)O)C(=O)N[C@H](C(=O)N[C@@H](C)C(=O)N[C@H](C=O)CC(=O)O)C(C)C)C(C)C (Ac-VDVAD-aldehyde) | -0.92 °C | -0.83 °C |
| Cn1cc(C(=O)Nc2ccc([C@@H]3C[C@H]3NCC3CC3)cc2)cn1 | 0.16 °C | -0.53 °C |
| C[C@H](Nc1cc(Cl)nc2c1cnn2[C@@H]1O[C@H](COP(=O)(O)CP(=O)(O)O)[C@@H](O)[C@H]1O)c1ccccc1F | -1.02 °C | 0.2 °C |
| O=C(CN1CCN(C(=O)c2ccco2)CC1)Nc1cc(C(F)(F)F)ccc1Cl | -0.04 °C | 0.27 °C |
| CCOC(=O)Oc1c(OC)cc(C(=O)O[C@H]2C[C@H]3CN4CCc5c([nH]c6cc(OC)ccc56)[C@@H]4C[C@H]3[C@@H](C(=O)OC)[C@@H]2OC)cc1OC | 2.92 °C | -1.05 °C |
| COc1cc2c(cc1-c1c(C)noc1C)[nH]c1nc(C)nc(Nc3cc(C4CC4)nn3C)c12 | 1.07 °C | -0.94 °C |
| N=C(N)NC(=O)c1cnn(-c2cccc3ncccc23)c1C1CC1 | -0.17 °C | -0.51 °C |
| CNCCN(C)Cc1cn[nH]c1-c1ccc(OC2CC(OCCC3CCOCC3)C2)cc1 (stereo not given) | -0.84 °C | 0.29 °C |
| COc1cc(O)cc(CN2CCc3c(cc(Cn4ccn(C)c4=N)cc3-c3ccc(F)cc3C)C2=O)c1 | -1.15 °C | -1.31 °C |
| Cc1cc(-c2ccccc2)cc(C(=O)NNS(=O)(=O)c2ccccc2)c1F | -1.3 °C | 0 °C |
| COc1cc([C@@H]2Oc3c(O)cc([C@H]4Oc5cc(O)cc(O)c5C(=O)[C@@H]4O)cc3[C@H]2CO)ccc1O | 2.27 °C | -0.46 °C |

| SMILES | ΔTm [1] | ΔTm [2] |
| --- | --- | --- |
| CCCCCCCC(=O)N[C@H](CN1CCCC1)[C@H](O)c1ccc2c(c1)OCCO2 | 1.02 °C | 0.38 °C |
| N#Cc1cc2cc(CN3CCC(Nc4ncnc5sc(CC(F)(F)F)cc45)CC3)ccc2[nH]1 | 1.21 °C | 0.16 °C |
| CC(C)[C@H](NC(=O)[C@H](CCC(=O)O)NC(=O)[C@H](C)NC(=O)OC(C)(C)C)C(=O)N[C@H](C=O)CC(=O)O (Boc-AEVD-aldehyde) | -1.27 °C | 0.45 °C |
| C=CCO/N=C1\c2ccccc2-c2nc(C#N)c(C#N)nc21 | 2.37 °C | 0.66 °C |
| O=c1[nH]c(N2CCC3(CC2)CN(CCO)c2cc(F)cc(F)c23)nc2c1CCCC2 | 1.75 °C | -0.52 °C |
| N#Cc1cccnc1N1CCN(C(=O)c2cccc(Cc3n[nH]c(=O)c4ccccc34)c2)CC1 | 1.88 °C | -0.1 °C |
| Cc1ccc(C(=O)Nc2ccc(S(=O)(=O)O)c3cc(S(=O)(=O)O)cc(S(=O)(=O)O)c23)cc1NC(=O)c1cccc(NC(=O)Nc2cccc(C(=O)Nc3cc(C(=O)Nc4ccc(S(=O)(=O)O)c5cc(S(=O)(=O)O)cc(S(=O)(=O)O)c45)ccc3C)c2)c1 | -1.58 °C | -1.68 °C |
| COc1cc(C(=O)NCC2(N(C)C)CCCC2)cc(OC)c1OCc1ccccc1 | 2.2 °C | 0.12 °C |
| CN(C)CCCNC(=O)c1ccc(-c2cc(O)c3ncccc3c2)cc1 | -1.48 °C | 0.49 °C |
| CC(=O)N[C@@H](CC(=O)O)C(=O)N[C@@H](CC(N)=O)C(=O)N[C@@H](CC(C)C)C(=O)N[C@H](C=O)CC(=O)O | 1.79 °C | 0.44 °C |
| CC(C)NCC(O)COC(Cn1c2ccccc2c2ccccc21)Cn1c2ccccc2c2ccccc21 (stereo not given) | -1.15 °C | 0.48 °C |
| O=c1[nH][nH]c(=O)c2cc(OCC3CCCCC3)ccc12 | 2.63 °C | 1.11 °C |
| Cc1nc(-c2cnc(NC(C)C)n(C)c2=O)ccc1Oc1ccnc(-c2cnn(C)c2)c1 | -1.33 °C | 0.6 °C |
| CS(=O)(=O)c1ccc(Oc2cc(F)cc(C#N)c2)c2c1C(O)C(F)C2 (stereo not given) | 0.86 °C | -0.57 °C |
| Cc1cc(C)c(-c2[nH]nc(C)c2C)cc1C(=O)N1CC(c2ccc(C#N)cc2)C1 | -1.03 °C | -0.22 °C |
| CC(C)(C)OC(=O)NCCCCCN(CCc1ccccc1)C(=O)n1cc(-c2ccc(OC(F)(F)F)cc2)nn1 | 1.14 °C | -1.05 °C |
| COc1cc2c(cc1OC)[C@H]1C[C@@H](OC(=O)[C@@H](N)C(C)C)[C@H](CC(C)C)CN1CC2 | -1.11 °C | 0.33 °C |
| O=C(NCc1ccc(Cl)cc1)C1CCN(S(=O)(=O)c2cc(Cl)cc(Cl)c2)CC1 | 1.09 °C | -0.34 °C |
| CC/C(=C(/c1ccc(/C=C/C(=O)O)cc1)c1ccc2[nH]ncc2c1)c1ccc(F)cc1Cl | 0 °C | -5.4 °C |
| Cc1nc2ccccn2c1C(=O)CN1CCN(c2ccc(F)cn2)CC1 | 0.49 °C | -0.08 °C |

| SMILES | ΔTm [1] | ΔTm [2] |
| --- | --- | --- |
| C[C@@H](Oc1ccc(CNC(=O)c2cccnc2Oc2ccc3c(c2)OCO3)c(F)c1)C(=O)O | 3.08 °C | 0.14 °C |
| c1cncc(-c2cnn[nH]2)c1 | 0.36 °C | 0.33 °C |
| O=S(=O)(O)c1ccc2cc(/N=N/c3cc(S(=O)(=O)O)c4cccnc4c3O)ccc2c1 | -0.89 °C | -0.08 °C |
| CC(C)N(C(=O)c1cc(F)ccc1Oc1cncnc1N1CC2(CCN(C[C@H]3CC[C@H](NS(C)(=O)=O)CC3)CC2)C1)C(C)C | 0.63 °C | -0.47 °C |
| CC(=O)N[C@@H](CCCCNC(=O)CSCCNC(=O)CCNC(=O)[C@H](O)C(C)(C)COP(=O)(O)OP(=O)(O)OC[C@H]1O[C@@H](n2cnc3c(N)ncnc32)[C@H](O)[C@@H]1OP(=O)(O)O)C(N)=O | 1.95 °C | 0.51 °C |
| O=C(c1ccc2[nH]ccc2c1)N1CCN(S(=O)(=O)c2ccc3[nH]c(=O)oc3c2)CC1 | -0.16 °C | 1.77 °C |
| CNC(=O)N1CCc2c(c(N3CCCc4cc(-c5cnn(C)c5)c(C(F)F)cc43)nn2C2CCOCC2)C1 | -0.21 °C | -0.44 °C |
| NC(=O)c1cnc(N[C@@H]2CCCC[C@@H]2N)nc1Nc1cccc(-n2nccn2)c1 | -1.09 °C | 0.98 °C |
| O=C(C1CC1)N1CC[C@@H](Cc2n[nH]c(=O)n2-c2ccc(-c3ccc4occc4c3)cc2)C1 | -1.32 °C and 0.92 °C | 0.63 °C and -0.68 °C |
| CC(C)C[C@@H](C=O)NC(=O)[C@@H](NS(=O)(=O)c1ccc(F)cc1)C(C)C | -1.65 °C | -0.07 °C |
| COc1ccc2nc3[nH]nc(C)c3c(NCCOCCO)c2c1 | -1.14 °C | 0.8 °C |
| Nc1ccc(-c2cccs2)cc1NC(=O)c1ccc(NC=O)cc1 | 2.98 °C | 0.02 °C |
| Cc1c(NC(=O)c2cc(C(N)=O)nc3cc(F)ccc23)c(C(F)(F)F)nn1Cc1ccc(C#N)cc1 | 0.94 °C | 0.32 °C |
| Nc1ncnc2nc(-c3ccc(N4CCOCC4)nc3)cc(-c3cccc(Br)c3)c12 | -0.37 °C | 0.52 °C |
| CC(C)(C)NS(=O)(=O)c1ccc(NC(=O)[C@H](Cc2ccccc2)NC(=O)c2ccc(F)cc2)cc1 | 0.73 °C | 0.56 °C |
| Nc1cccc(CNC(=O)c2ccc(Oc3ccc(OCc4cccc(F)c4)cc3)nc2)c1 | 2.81 °C | -0.6 °C |
| CCCSc1nc(N[C@@H]2C[C@H]2c2ccc(F)c(F)c2)c2nnn([C@@H]3C[C@H](OCCO)[C@@H](O)[C@H]3O)c2n1 | 0.55 °C | -0.32 °C |
| CCN(CC)S(=O)(=O)c1cc(Nc2nccc(-c3ccnc(-c4ccc(NC(=O)NC)cc4)c3)n2)ccc1Cl | -7.45 °C | -4.8 °C |
| CCC[C@@H]1CNCc2c1[nH]c(=O)c(C#N)c2N1CCC2(CC1)CC2 | -1.25 °C | 0.64 °C |
| N#Cc1cc(F)cc(Oc2ccc3c(c2C(F)F)[C@@H](O)C(F)(F)S3(=O)=O)c1 | 2.23 °C | -0.59 °C |
